Common to all, as to format: cell-based, human
Test [1] has as its system FAPs from M^CT, FibM^CT and FibM^OP. The test is described as follows: COL7A1 immunostaining as a readout of ECM production in FAPs treated with ET-1 +/- antagonist. The note with it: 3 days. An excerpt:
(§1) Human FAPs cells were isolated from muscle biopsies obtained during surgical procedures via Myobank, affiliated to EuroBioBank, after informed consent in accordance with European recommendations and French legislation (authorization AC-2019-3502). Human FAPs isolated here as the CD56 negative cell fraction (Périé, S. et al. 2006), are obtained from control skeletal muscle: M^CT, control fibrotic cricopharyngeal muscle (CPM): FibM^CT, OPMD fibrotic CPM with exacerbated levels of fibrosis: FibM^OP, and fibrotic muscle from inclusion body myositis patients: FibM^IBM. All tested fibrotic muscle are skeletal fibrotic muscle. These cells expressed predominantly PDGFRa, CD90 and CD105 known markers of Fibro/Adipogenic Progenitors (FAPs) in human skeletal muscle. The tissue type, cell type, age, pathological condition and muscle fibrotic state of each biopsy sample are specified in table below.
(§2) The muscle biopsies were finely minced and explants were plated onto non-coated Petri dishes in drops of fetal bovine serum (FBS) (Invitrogen, Carlsbad, CA) as previously described (Bigot et al., 2009). Cells were cultivated at 37° C. in a humid atmosphere containing 5% CO2 and in growth medium consisting of 199 medium (Life technologies, Paisley, UK) and Dulbecco's Modified Eagle Medium (DMEM, Life technologies) in a 1:4 ratio supplemented with 20% Fetal Bovine Serum (FBS, Invitrogen), 25 μg/ml fetuin (Life technologies), 0.5 ng/mL bFGF (Life technologies), 5 ng/ml EGF (Life technologies), 5 μg/mL insulin (Sigma-Aldrich) and 50 μg/mL gentamycin (Life Technologies). Cells were labelled with CD56 antibody coupled to microbeads (130-050-401, MACS; Miltenyi Biotec, Paris, France) and then separated using a immunomagnetic cell sorting system (MACS) according to the manufacturer's instructions. The myogenic purity of both cell fractions (CD56+, myogenic and CD56−, non-myogenic) was monitored by immunocytochemistry using an antibody against desmin (clone D33, Dako, Trappes, France), exclusively expressed in myogenic cells.
The method for quantification of ET-1 protein is described in Le Bihan et al. 2012. Treatment of FAPs to evaluate the effect of ET-1 was performed on 70-80% confluence cells that were rinsed twice with DMEM and treated 3 days with proliferation medium at 1% FBS (instead of 20%) containing either DMSO or 40 nM ET-1 (E7764, Sigma-Aldrich)+/−10 μM Bosentan (SML1265, Sigma Aldrich), 10 nM BQ788 (SML192621, Sigma Aldrich), or 10 nM BQ123 (B150, Sigma-Aldrich). For proliferation experiment, Edu (10 μM) was added at day 2 and cells were fixed 24 h later. EdU labeling was carried out using the Click-iT™ EdU Cell Proliferation Kit (C10338, Life Technologies) according to the manufacturer's instructions. […]

The test system is the same in test [2]. In words: Edu proliferation of FAPs treated with ET-1 +/- antagonist. The note with it: 3 days.
Description: as §1
as §2, with “Cells were labelled with CD56 antibody coupled to microbeads (130-050-401, MACS; Miltenyi Biotec, Paris, France) and then separated using a immunomagnetic cell sorting system (MACS) according to the manufacturer's instructions.” left out
The method for quantification of ET-1 protein is described in Le Bihan et al. 2012. […]

Test [3] concerns myoblast cocultured with FAPs from FibM^OP. In words: Coculture of myoblasts with FAPs from fibrotic muscle, fusion index. The note with it: Bosentan 10 μM added at day 0 and day 3, fixed at day 5, myoblasts/FAPs 70%/30%. The procedure:
Non-myogenic (CD56-) and myogenic (CD56+) cells were seeded together at a 30%/70% ratio and at a final confluence of 21000 cells/cm2. Once the cells have adhered, the medium was replaced by a differentiation medium composed by DMEM with 50 μg/mL gentamycin. To study the effect of Bosentan on the fusion index in coculture 10 μM of Bosentan (SML1265, Sigma Aldrich) was added to the wells at day 0 and day 3. Cells were fixed at day 5 in 4% paraformaldehyde (PFA). The fusion index was calculated as the ratio between the number of nuclei per myotube (>2 nuclei) identified by a desmin staining and the total number of desmin+nuclei. Immunostaining were performed on cells fixed in 4% PFA for 10 minutes (min) and incubated with blocking solution (PBS 2% FBS 0.2% Triton) for 30 minutes (min). Fixed cells were then incubated 1 h with primary antibodies (COL7A1 […] Sigma Aldrich 1/800; Desmin […] Dako 1/50). Detection of immune complexes was performed using the appropriate Alexa-Fluor-secondary antibodies purchased from Life Technologies (Grand Island, NY) for 45 min. Nuclei and actin filament were counterstained with Hoechst and Phalloidin-Alexa 568 (Interchim 1/400) respectively.

This is an account of results in US20250009747A1, “ENDOTHELIN RECEPTOR ANTAGONISTS FOR USE IN TREATING OR PREVENTING MUSCLE FIBROSIS” (ASSOCIATION INSTITUT DE MYOLOGIE, priority 2021, published 2025).

Structures are written as SMILES. Entries after “also recorded” stand apart in the source; their conditions may differ. Square brackets hold non-standard residues; d marks the D form. Peptide text beside a SMILES is read from it.

With `CC(C)C[C@@H]1NC(=O)[C@@H](C(C)C)NC(=O)[C@@H]2CCCN2C(=O)[C@@H](CC(=O)O)NC(=O)[C@@H](Cc2c[nH]c3ccccc23)NC1=O` [BQ123] (cyclo(L[dW][dD]P[dV])), the “ECM production (percentage of COL7A1 positive cells)” value in test [1] (ET-1 40 nM + antagonist 10 nM) was “decrease of ECM production”.

As to `CCCC[C@@H](NC(=O)[C@@H](Cc1cn(C(=O)OC)c2ccccc12)NC(=O)[C@H](CC(C)(C)C)NC(=O)N1[C@H](C)CCC[C@@H]1C)C(=O)O` [BQ788], the “ECM production (percentage of COL7A1 positive cells)” value in test [1] (ET-1 40 nM + antagonist 10 nM) was “decrease of ECM production”. Further, the “proliferation (percentage of Edu positive cells)” value in test [2] (ET-1 40 nM + BQ788 10 nM) is “decrease of proliferation”.

For `COc1ccccc1Oc1c(NS(=O)(=O)c2ccc(C(C)(C)C)cc2)nc(-c2ncccn2)nc1OCCO` [Bosentan], the fusion index entry in test [3] is “partially restored to control levels”. The “ECM production (percentage of COL7A1 positive cells)” value in test [1] (ET-1 40 nM + Bosentan 10 μM) is “partially abolished the effect of ET1”. For the same compound, the “proliferation (percentage of Edu positive cells)” value in test [2] (ET-1 40 nM + Bosentan 10 μM) is “partially abolished the effect of ET1; also recorded: decrease of proliferation”.

Consider `CC[C@H](C)[C@H](NC(=O)[C@H](CC(=O)O)NC(=O)[C@H](CC(C)C)NC(=O)[C@H](Cc1c[nH]cn1)NC(=O)[C@@H]1CSSC[C@H](N)C(=O)N[C@@H](CO)C(=O)N[C@H]2CSSC[C@H](NC(=O)[C@H](CCC(=O)O)NC(=O)[C@H](CCCCN)NC(=O)[C@H](CC(=O)O)NC(=O)[C@H](CCSC)NC(=O)[C@H](CC(C)C)NC(=O)[C@H](CO)NC(=O)[C@H](CO)NC2=O)C(=O)N[C@@H](C(C)C)C(=O)N[C@@H](Cc2ccc(O)cc2)C(=O)N[C@@H](Cc2ccccc2)C(=O)N1)C(=O)N[C@H](C(=O)N[C@@H](Cc1c[nH]c2ccccc12)C(=O)O)[C@@H](C)CC` [ET1], for which, in test [1] (ET-1 40 nM, vs DMSO), the “ECM production (percentage of COL7A1 positive cells)” value was “increased”. Also, in test [2] (ET-1 40 nM, vs DMSO), the “proliferation (percentage of Edu positive cells)” value is “increased”.
